The source of these data is PMC11844072, “Novel 5,6-dichlorobenzimidazole derivatives as dual BRAFWT and BRAFV600E inhibitors: design, synthesis, anti-cancer activity and molecular dynamics simulations” (BMC Chemistry, 2025).

Holding throughout (assay): NCI 60 single concentration growth inhibition
Holding throughout (format): cell-based, human

Experiment [1] deals with K-562. Particulars: K-562, Leukemia, 10 μM. How it is done: (§1) The synthesized dichlorobenzimidazoles 10a–p were assayed for their influence on divers cancer cell lines according to the method presented in the Additional file A.
(§2) 5. Screening of cytotoxic activity against a panel of sixty human tumor cell lines
(§3) The selected compounds by NCI were evaluated for their anticancer activity in a two-stage process. First, these compounds were screened against the full NCI 60 cell lines panel at a single high dose of 10 µM. Then, the output from the single dose screen is reported as a mean graph. […]
(§4) Assay protocol. The human tumor cell lines of the cancer screening panel are grown in RPMI 1640 medium containing 5% fetal bovine serum and 2 mM L-glutamine. For a typical screening experiment, cells are inoculated into 96 well microtiter plates in 100 µL at plating densities ranging from 5000 to 40,000 cells/well depending on the doubling time of individual cell lines. After cell inoculation, the microtiter plates are incubated at 37 °C, 5% CO 2, 95% air and 100% relative humidity for 24 h prior to addition of the experimental drugs.
(§5) After 24 h, two plates of each cell line are fixed in situ with TCA, to represent a measurement of the cell population for each cell line at the time of drug addition (Tz). The experimental drugs are solubilized in dimethyl sulfoxide at 400-fold the desired final maximum test concentration and stored frozen prior to use. At the time of drug addition, an aliquot of frozen concentrate is thawed and diluted to twice the desired final maximum test concentration with complete medium containing 50 µg/mL gentamicin. Additional four, 10-fold or ½ log serial dilutions are made to provide a total of five drug concentrations plus control.
(§6) Aliquots of […] of these different drug dilutions are added to the appropriate microtiter wells already containing […] of medium, resulting in the required final drug concentrations.
(§7) Following drug addition, the plates are incubated for an additional 48 h at 37 °C, 5% CO 2, 95% air, and 100% relative humidity. For adherent cells, the assay is terminated by the addition of cold TCA.
(§8) Cells are fixed in situ by the gentle addition of 50 µL of cold 50% (w/v) TCA (final concentration, 10% TCA) and incubated for 60 min at 4 °C. The supernatant is discarded, and the plates are washed five times with tap water and air dried. Sulforhodamine B (SRB) solution ([…]) at 0.4% (w/v) in 1% acetic acid is added to each well, and plates are incubated for 10 min at room temperature. After staining, unbound dye is removed by washing five times with 1% acetic acid and the plates are air dried. Bound stain is subsequently solubilized with 10 mM trizma base, and the absorbance is read on an automated plate reader at a wavelength of 515 nm. For suspension cells, the methodology is […]
(§9) the same except that the assay is terminated by fixing settled cells at the bottom of the wells by gently adding 50 µl of 80% TCA (final concentration, 16% TCA). Using the seven absorbance measurements [time zero, (Tz), control growth, (C), and test growth in the presence of drug at the five concentration levels (Ti)], the percentage growth is calculated at each of the drug concentrations […]
(§10) Percentage growth inhibition is calculated as: [(Ti Tz)/(C–Tz)] x 100 for concentrations for which Ti>/=Tz and [(Ti-Tz)/Tz] x 100 for concentrations for which Ti < Tz. […]
(§11) Results for each compound were reported as a mean graph of the percent growth of the treated cells when compared to the untreated control cells. There after obtaining the results for one dose assay, analysis of historical Development Therapeutics Programme (DTP) was performed and compounds which satisfies predetermined threshold inhibition criteria is selected for NCI full panel 5 dose assay.

Experiment [2] concerns DU-145. Particulars: DU-145, Prostate cancer, 10 μM. On the procedure:
as §1, §2, §3, §4, §5, §6, §7, §8, §9, §10, §11

In experiment [3] the test system is NCI-H460. Particulars: NCI-H460, Non-small cell lung cancer, 10 μM. How it is done: as §1, §2, §3, §4, §5, §6, §7, §8, §9, §10, §11
Experiment [4] concerns OVCAR-3. Particulars: OVCAR-3, Ovarian cancer, 10 μM. On the procedure: as §1, §2, §3, §4, §5, §6, §7, §8, §9, §10, §11
In experiment [5] the test system is HT29. The note with it: HT29, Colon cancer, 10 μM. How it is done:
as §1, §2, §3, §4, §5, §6, §7, §8, §9, §10, §11

The test system of experiment [6] is SW-620. Particulars: SW-620, Colon cancer, 10 μM. How it is done:
as §1, §2, §3, §4, §5, §6, §7, §8, §9, §10, §11

Experiment [7] deals with HCT-15. The note with it: HCT-15, Colon cancer, 10 μM. How it is done:
as §1, §2, §3, §4, §5, §6, §7, §8, §9, §10, §11

In experiment [8] the test system is LOX IMVIL. Particulars: Melanoma, 10 μM. How it is done:
as §1, §2, §3, §4, §5, §6, §7, §8, §9, §10, §11

For experiment [9], the system named is HCC-2998. Particulars: HCC-2998, Colon cancer, 10 μM. On the procedure:
as §1, §2, §3, §4, §5, §6, §7, §8, §9, §10, §11

Experiment [10] relates to COLO 205. The note with it: COLO 205, Colon cancer, 10 μM. On the procedure: as §1, §2, §3, §4, §5, §6, §7, §8, §9, §10, §11
Experiment [11] deals with NCI/ADR-RES. The note with it: Ovarian cancer, 10 μM. On the procedure:
as §1, §2, §3, §4, §5, §6, §7, §8, §9, §10, §11

Experiment [12] relates to HOP-92. The note with it: HOP-92, Non-small cell lung cancer, 10 μM. How it is done:
as §1, §2, §3, §4, §5, §6, §7, §8, §9, §10, §11

Experiment [13] concerns U251. Particulars: U251, CNS cancer, 10 μM. On the procedure: as §1, §2, §3, §4, §5, §6, §7, §8, §9, §10, §11
The test system of experiment [14] is TK-10. Particulars: TK-10, Renal cancer, 10 μM. On the procedure: as §1, §2, §3, §4, §5, §6, §7, §8, §9, §10, §11
The test system of experiment [15] is OVCAR-4. The note with it: OVCAR-4, Ovarian cancer, 10 μM. On the procedure: as §1, §2, §3, §4, §5, §6, §7, §8, §9, §10, §11
Experiment [16] deals with SNB-19. The note with it: SNB-19, CNS cancer, 10 μM. On the procedure: as §1, §2, §3, §4, §5, §6, §7, §8, §9, §10, §11
The subject of experiment [17] is NCI-H522. The note with it: NCI-H522, Non-small cell lung cancer, 10 μM. How it is done:
as §1, §2, §3, §4, §5, §6, §7, §8, §9, §10, §11

Turning to “2-(4-((2-(2-(5,6-Dichloro-2-(4-methoxyphenyl)-1H-benzo[d]imidazol-1-yl)acetyl)hydrazono)methyl) -2-methoxyphenoxy)acetic acid [Compound 10m]”, the GI% result in experiment [1], in experiment [2], in [3], in experiment [4], in experiment [5] and in [6] was “– (GI% < 5%)” each time. The GI% result in [7], in experiment [8], in [9], in experiment [10], in experiment [11] and in experiment [12] was “– (GI% < 5%)” in each case. In addition, the GI% entry in experiment [13] was “– (GI% < 5%)”; in experiment [14], “– (GI% < 5%)”; in [15] it was “– (GI% < 5%)”; in experiment [16], “– (GI% < 5%)”; in experiment [17] it was 6.07%.
“2-(5-((2-(2-(5,6-Dichloro-2-(4-methoxyphenyl)-1H-benzo[d]imidazol-1-yl)acetyl)hydrazono)methyl)-2-methoxyphenoxy)acetic acid [Compound 10n]”: the GI% result in experiment [1], in experiment [2], in [3], in experiment [4], in [5] and in [6] was “– (GI% < 5%)” in each case. Besides, the GI% entry in experiment [7] is on record as “– (GI% < 5%)”; in experiment [8], 10.35%; in experiment [9], “– (GI% < 5%)”; in [10] it was “– (GI% < 5%)”; in [11] it was “– (GI% < 5%)”; in experiment [12], “– (GI% < 5%)”. In addition, the GI% result in experiment [13] is “– (GI% < 5%)”; in experiment [14], “– (GI% < 5%)”; in experiment [15], “– (GI% < 5%)”; in experiment [16] it was “– (GI% < 5%)”; in [17], 8.04%.
